This note sets out measurements from patent US7314726B2, “Beta secretase exosite binding peptides and methods for identifying beta secretase modulators” (Bristol-Myers Squibb Company, priority 2002, dated 2008).

For the test, the target named is BACE (Homo sapiens, UniProt P56817). Briefly: Isothermal titration calorimetry (ITC) of BACE and peptides. Format: binding. Also noted: The cDNA for the catalytic domain of human BACE (residues 1-460) was PCR-amplified; human IgG1 heavy chain (C, cleaved yes); thrombin cleavage site (C); made in house; host or cells: CHO DG44 cells (stably transfected, secreted). How it is done:
Isothermal titration calorimetry was performed to determine quantitatively the binding affinities of BMS-561877 and BMS-561871 for β-secretase. Recombinant human BACE was expressed as a fusion protein with human IgG1, in Chinese hamster ovary (CHO) cells (Vassar et al., (1999) Science 286:735-741 and Haniu et al., (2000) J. Biol. Chem. 275:21099-21106).
This construct, referred to as BACE-T-IgG, also contained a protease cleavage site between BACE and IgG1, sensitive to human α-thrombin. The cDNA for the catalytic domain of human BACE (residues 1-460) was PCR-amplified and subcloned into the mammalian expression vector pTV1.6, upstream of a thrombin cleavage site linked to cDNA encoding human IgG1 heavy chain. The vector construct, pTV1.6-BACE-T-IgG, was used to produce stably transfected DHFR-deficient CHO DG44 cells, which were then scaled up using methotrexate for selection.
The clarified growth media harvested from CHO DG44 cells which contained the fusion protein was loaded onto a rProtein A SEPHAROSE™ column (5×20 cm, Amersham Pharmacia Biotech) using a peristaltic pump at 4° C., at 4 mL/min. The column was washed with Dulbecco's PBS, pH 7.1, 4 mL/min, until baseline absorbance at 280 nm was observed. BACE-T-IgG was eluted from the resin with 0.10 M citrate, pH 3.0, into tubes containing 0.5 volumes of 4 M Tris, pH 8. Fractions containing the fusion protein were dialyzed extensively using 12,000-14,000 […] MWCO membrane (UltraPURE, GIBCO BRL) against PBS, pH 7.1, at 4° C. The protein was sterile filtered (0.22 μm) and stored at 4° C.
To generate BACE for binding experiments, the fusion protein BACE-T-IgG was treated with human α-thrombin (Enzyme Research Labs, South Bend, Ind.) at a ratio of 1:500 (mass:mass) in Dulbecco's PBS, pH 7.1, at 37° C. for 2 hr. Human α-thrombin was removed by passing the sample over Benzamidine SEPHAROSE™ 6B column (Amersham Pharmacia Biotech). The cleaved IgG1 was captured by passing the solution over a rProtein A SEPHAROSE™ (Amersham Pharmacia Biotech) column, whereas the BACE passed through this column. The protein sample was further purified by concentrating to 10-15 mg/mL using a centrifugation concentration unit (Millipore Ultrafree 10 kDa MWCO, 15 mL unit) and loading onto a SUPERDEX™ 200 PC 3.2/30 gel-filtration column (Amersham Pharmacia Biotech). The column was run at 3 mL/min with Dulbecco's PBS, pH 7.1, at room temperature. Fractions containing BACE were combined, sterile filtered (0.22 μm) and stored at 4° C.
BACE was prepared for isothermal titrating calorimetry by extensive dialysis against fresh buffer at 4° C. using 12,000-14,000 […] MWCO dialysis membrane (UltraPURE, GIBCO BRL). […] Following 2 buffer changes, the protein was removed from the membrane and centrifuged (5 min×4000 g, 4° C.) to remove particulates. The protein was stored at 4° C. until needed for the calorimetry experiments. The protein concentration was determined by 10-fold dilution into the same buffer, and measuring the UV absorbance at 280 nm in a 1.00 cm pathlength cell (calculated value=1.22 AU=1.00 mg/mL protein, based on mean glycosylated molecular weight=53.5 kDa, and given amino acid composition). Final concentrations used in isothermal titrating calorimetry were typically 5.0 μM, containing a final concentration of 0.5% v/v DMSO.
Peptides were dissolved in the buffer dialysate from protein dialysis, and equal volumes of DMSO were added to each (0.5% v/v DMSO). The pH values of the solutions were adjusted as necessary to equal that of the buffer dialysate and protein sample within 0.01 pH units.
(In ITC the heat of successive injections is recorded.)

Where [1] appears, read: pH 5.3, 37° C., sample cell: CHO BACE.
The mark [2] stands for this setting: pH 5.3, 37° C., sample cell: CHO BACE: OM99-2 (10-fold excess added first).

BACE, sequence (P56817 46-460 limits assumed): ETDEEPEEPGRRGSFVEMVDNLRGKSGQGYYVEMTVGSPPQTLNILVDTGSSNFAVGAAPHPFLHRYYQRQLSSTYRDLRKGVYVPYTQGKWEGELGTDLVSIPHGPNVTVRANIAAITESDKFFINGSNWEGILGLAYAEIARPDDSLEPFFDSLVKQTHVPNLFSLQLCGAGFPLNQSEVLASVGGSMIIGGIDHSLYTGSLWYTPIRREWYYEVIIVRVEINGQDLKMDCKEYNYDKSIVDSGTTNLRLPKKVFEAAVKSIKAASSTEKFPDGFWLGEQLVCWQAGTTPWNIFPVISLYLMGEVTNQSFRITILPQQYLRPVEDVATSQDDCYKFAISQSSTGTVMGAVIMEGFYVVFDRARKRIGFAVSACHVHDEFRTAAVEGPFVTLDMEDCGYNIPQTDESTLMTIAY

For the substance Ac-NLTTYPYFIPLP-OH [BMS-561871], for the setting “25° C., Dulbecco's PBS, pH 7.1”, the KA amounted to 1.65e+07 M⁻¹, binding was characterised by a dissociation constant (Kd) of 0.061 µM, the “n (binding stoichiometry)” value came out at 1.03 and the ΔH was -12.9 kcal/mol. Besides, under setting [1], the Kd was 0.38 µM, the “T(dS)” value was -6.8 kcal/mol, the ΔG is -9.1 kcal/mol and the ΔH is -15.9 kcal/mol. In addition, under setting [2], the dissociation constant (Kd) stood at 0.28 µM, the “T(dS)” value is -5.7 kcal/mol, the ΔG was -9.3 kcal/mol and the ΔH was -15.0 kcal/mol.

One may read the Kd as the equilibrium constant for the complex coming apart. Lower therefore signals a tighter complex.
